Patent US4331803A, “Novel erythromycin compounds” (Taisho Pharmaceutical Co., Ltd., priority 1980, dated 1982)
Converted amounts (≈) assume the structure as drawn. Where two headings read alike, the source gives them in different places.

Tests used:
[1] = test system: Staphylococcus aureus TPR-5; experiment: Antibacterial activity, agar plate dilution method (MIC); format: cell-based
Procedure: (§1) The compound of the formula(I) was tested for the antibacterial activity by the agar plate dilution method, using erythromycin A for the control.
*Strain resistant to sulfonamides and penicillins

[2] = test system: Staphylococcus aureus TPR-7; experiment: as above; format: cell-based
Procedure: as §1
**Strain resistant to sulfonamides and tetracyclines

[3] = test system: Staphylococcus aureus Smith No. 4; experiment: In vivo activity, survival of infected mice after oral administration; design: species or system male ddY mice; conditions: 1 h after inoculation, 14 mice per group, 7 days
Procedure: Male ddY mice (body weight, 18-22 g; 14 mice per group) were inoculated with Staphylococcus aureus Smith No. 4. The compound of the formula(I) was administered orally one hour after the inoculation, and the number of mice surviving for seven days after the administration was noted.

[4] = test system: Staphylococcus epidermidis TPR-14; experiment: Antibacterial activity, agar plate dilution method (MIC); format: cell-based
Procedure: as §1
***Strain resistant to sulfonamides, penicillins and chloramphenicol

[5] = test system: Staphylococcus aureus Terashima; experiment: as above; format: cell-based; conditions: read-out: MIC value
Procedure: as §1

[6] = test system: Streptococcus faecalis ATCC 8043; experiment: as above; format: cell-based; conditions: Enterococcus faecalis
Procedure: as §1

[7] = test system: Staphylococcus epidermidis IID866; experiment: as above; format: cell-based
Procedure: as §1

[8] = test system: Bacillus subtilis ATCC 6633; experiment: as above; format: cell-based
Procedure: as §1

[9] = test system: Staphylococcus aureus FDA 209P; experiment: as above; format: cell-based; conditions: FDA209P, read-out: MIC value
Procedure: as §1

[10] = test system: Micrococcus luteus ATCC 9341; experiment: as above; format: cell-based
Procedure: as §1

[11] = test system: Staphylococcus aureus Smith; experiment: as above; format: cell-based; conditions: read-out: MIC value
Procedure: as §1

[12] = test system: Bacillus cereus ATCC 9634; experiment: as above; format: cell-based
Procedure: as §1

[13] = test system: Staphylococcus aureus FDA 209P; experiment: Acid stability (pH 2), remaining antibacterial activity by disc method; format: physicochemical; conditions: pH 2, Clark-Lubs's buffer, 0 min
Procedure: (§2) The compound of the formula(I) was treated in the Clark-Lubs's buffer solution at pH 2 for the prescribed period of time.
(§3) Thereafter, the remaining antibacterial activity was determined by a disc method, using Staphylococcus aureus FDA 209P. Erthromycin A was also tested for the control.

[14] = as above; format: physicochemical, Staphylococcus aureus FDA 209P
Procedure: as §2, §3

[15] = cited from earlier work
[16] = TPR5, Staphylococcus aureus TPR-5, resistant to sulfonamides and penicillins, read-out: MIC value
[17] = TPR7, Staphylococcus aureus TPR-7, resistant to sulfonamides and tetracyclines, read-out: MIC value
[18] = TPR14, Staphylococcus epidermidis TPR-14, resistant to sulfonamides, penicillins and chloramphenicol, read-out: MIC value
[19] = Staphylococcus aureus Terashima
[20] = ATCC8043, Streptococcus faecalis ATCC 8043, read-out: MIC value
[21] = Staphylococcus epidermidis IID866, read-out: MIC value
[22] = ATCC6633, Bacillus subtilis ATCC 6633, read-out: MIC value
[23] = ATCC9341, Micrococcus luteus ATCC 9341, read-out: MIC value
[24] = ATCC9634, Bacillus cereus ATCC 9634, read-out: MIC value

Row | Structure (SMILES) | The number of surviving mice ([3]; 0.40 mg/kg oral) [mice] | The number of surviving mice ([3]; 1.56 mg/kg oral) [mice] | The number of surviving mice ([3]; 6.25 mg/kg oral) [mice] | The number of surviving mice ([3]; 25 mg/kg oral) [mice] | The number of surviving mice ([3]; 100 mg/kg oral) [mice] | The number of surviving mice ([3]; 400 mg/kg oral) [mice] | Remaining activity [13] [%] | MIC [1, 16] [µg/mL] | MIC [2, 17] [µg/mL] | MIC [4, 18] [µg/mL] | MIC [5, 19] [µg/mL] | MIC [6, 20] [µg/mL] | MIC [7, 21] [µg/mL] | MIC [8, 22] [µg/mL] | MIC ([9]; Staphylococcus aureus FDA 209P) [µg/mL] | MIC [10, 23] [µg/mL] | MIC ([11]; Staphylococcus aureus Smith) [µg/mL] | MIC [12, 24] [µg/mL] | remaining at 0.25 h ([14]; clark-lubs buffer, pH 2) [%] | remaining at 0.5 h ([14]; clark-lubs buffer, pH 2) [%] | also measured
1 | CC[C@H]1OC(=O)[C@H](C)[C@@H](O[C@H]2C[C@@](C)(OC)[C@@H](O)[C@H](C)O2)[C@H](C)[C@@H](O[C@@H]2O[C@H](C)C[C@H](N(C)C)[C@H]2O)[C@](C)(O)C[C@@H](C)C(=O)[C@H](C)[C@@H](O)[C@]1(C)O [Erythromycin A, erythromycin A, reference compound] | 0 | 0 | 0 | 1 | 11 | 14 | 100 |  |  |  |  |  |  |  |  |  |  |  |  |  | MIC ([1]; Staphylococcus aureus, TPR5, read-out: MIC value): 0.4 µg/mL (≈ 0.545 µM); MIC ([2]; Staphylococcus aureus, TPR7, read-out: MIC value): 0.4 µg/mL (≈ 0.545 µM); MIC ([4]; Staphylococcus epidermidis, TPR14, read-out: MIC value): 0.4 µg/mL (≈ 0.545 µM); MIC ([5]; Staphylococcus aureus): 0.4 µg/mL (≈ 0.545 µM); MIC ([6]; ATCC8043, read-out: MIC value): 0.05 µg/mL (≈ 0.0681 µM); MIC ([7]; Staphylococcus epidermidis, IID866, read-out: MIC value): 0.4 µg/mL (≈ 0.545 µM); MIC ([8]; Bacillus subtilis, ATCC6633, read-out: MIC value): 0.1 µg/mL (≈ 0.136 µM); MIC ([9]; Staphylococcus aureus): 0.2 µg/mL (≈ 0.273 µM); MIC ([10]; Micrococcus luteus, ATCC9341, read-out: MIC value): ≤ 0.05 µg/mL; MIC ([11]; Staphylococcus aureus): 0.4 µg/mL (≈ 0.545 µM); MIC ([12]; Bacillus cereus, ATCC9634, read-out: MIC value): 0.4 µg/mL (≈ 0.545 µM); remaining at 0.25 h ([14]; pH 2, Clark-Lubs's buffer, 15 min, read-out: Remaining activity): 1.5%; remaining at 0.5 h ([14]; pH 2, Clark-Lubs's buffer, 30 min, read-out: Remaining activity): 0.5%; remaining at 1 h ([14]; pH 2, Clark-Lubs's buffer, 60 min, read-out: Remaining activity): 0%; remaining at 2 h ([14]; pH 2, Clark-Lubs's buffer, 120 min, read-out: Remaining activity): 0%; antibacterial activity after oral administration (acid in stomach) [15]: loses rapidly the antibacterial activity; blood concentration ([15]; oral): remains at a low level
2 | CC[C@H]1OC(=O)[C@H](C)[C@@H](O[C@H]2C[C@@](C)(OC)[C@@H](O)[C@H](C)O2)[C@H](C)[C@@H](O[C@@H]2O[C@H](C)C[C@H](N(C)C)[C@H]2O)[C@](C)(OC)C[C@@H](C)C(=O)[C@H](C)[C@@H](O)[C@]1(C)O [TE-031, 6-O-methylerythromycin A] | 0 | 1 | 3 | 13 | 14 | 14 | 100 | 0.2 (≈ 0.267 µM) | 0.2 (≈ 0.267 µM) | 0.2 (≈ 0.267 µM) | 0.2 (≈ 0.267 µM) | 0.05 (≈ 0.0668 µM) | 0.2 (≈ 0.267 µM) | 0.05 (≈ 0.0668 µM) | 0.05 (≈ 0.0668 µM) | ≤ 0.05 | 0.2 (≈ 0.267 µM) | 0.2 (≈ 0.267 µM) | 100 | 95 | remaining at 1 h ([14]; clark-lubs buffer, pH 2): 80%; remaining at 2 h ([14]; clark-lubs buffer, pH 2): 65%
3 | CC[C@H]1OC(=O)[C@H](C)[C@@H](O[C@H]2C[C@@](C)(OC)[C@@H](O)[C@H](C)O2)[C@H](C)[C@@H](O[C@@H]2O[C@H](C)C[C@H](N(C)C)[C@H]2O)[C@](C)(OC)C[C@@H](C)C(=O)[C@H](C)[C@@H](OC)[C@]1(C)O [TE-032, 6,11-di-O-methylerythromycin A] | 0 | 0 | 4 | 7 | 14 | 14 | 100 | 0.4 (≈ 0.525 µM) | 0.4 (≈ 0.525 µM) | 0.4 (≈ 0.525 µM) | 0.4 (≈ 0.525 µM) | 0.05 (≈ 0.0656 µM) | 0.4 (≈ 0.525 µM) | 0.05 (≈ 0.0656 µM) | 0.1 (≈ 0.131 µM) | ≤ 0.05 | 0.1 (≈ 0.131 µM) | 0.4 (≈ 0.525 µM) | 100 | 95 | remaining at 1 h ([14]; clark-lubs buffer, pH 2): 85%; remaining at 2 h ([14]; clark-lubs buffer, pH 2): 65%
